In ChEMBL document CHEMBL4152293, “Synthesis and biological evaluation of podophyllotoxin derivatives as selective antitumor agents” (Eur J Med Chem, 2018):

Legend:
A549 [1] = assay: Cytotoxicity against human A549 cells assessed as growth inhibition after 72 hrs by MTT assay; type: functional, cell-based; conditions: A549, 72 h
[2] = Selectivity index, ratio of IC50 for human L02 cells to IC50 for human A549 cells; type: toxicity; conditions: L02 cells versus A549 cells, read-out: Ratio IC50
L02 [3] = assay: Induction of morphological changes in human L02 cells at 10 to 30 nM after 72 hrs by DAPI staining-based fluorescence microscopic method; type: cell-based; conditions: l02, 72 h, 0.03 µM
A549 [4] = assay: Induction of apoptosis in human A549 cells assessed as early apoptotic cells at 10 nM after 72 hrs by annexin V-FITC/propidium iodide staining-based flow cytometric method (reference value: 3%); type: functional
A549 [5] = assay: Induction of apoptosis in human A549 cells assessed as late apoptotic cells at 100 nM after 72 hrs by annexin V-FITC/propidium iodide staining-based flow cytometric method (reference value: 4.1%); type: functional
A549 [6] = assay: Induction of apoptosis in human A549 cells assessed as necrotic cells at 100 nM after 72 hrs by annexin V-FITC/propidium iodide staining-based flow cytometric method (reference value: 0.1%); type: functional
A549 [7] = assay: Induction of apoptosis in human A549 cells assessed as viable cells at 100 nM after 72 hrs by annexin V-FITC/propidium iodide staining-based flow cytometric method (reference value: 92.8%); type: functional; conditions: A549, 72 h, read-out: Activity
A549 [8] = assay: Induction of apoptosis in human A549 cells assessed as early apoptotic cells at 200 nM after 72 hrs by annexin V-FITC/propidium iodide staining-based flow cytometric method (reference value: 3%); type: functional
A549 [9] = assay: Induction of apoptosis in human A549 cells assessed as late apoptotic cells at 200 nM after 72 hrs by annexin V-FITC/propidium iodide staining-based flow cytometric method (reference value: 4.1%); type: functional
A549 [10] = assay: Induction of apoptosis in human A549 cells assessed as necrotic cells at 200 nM after 72 hrs by annexin V-FITC/propidium iodide staining-based flow cytometric method (reference value: 0.1%); type: functional
A549 [11] = assay: Induction of apoptosis in human A549 cells assessed as viable cells at 200 nM after 72 hrs by annexin V-FITC/propidium iodide staining-based flow cytometric method (reference value: 92.8%); type: functional; conditions: A549, 72 h, read-out: Activity
L02 [12] = assay: Induction of apoptosis in human L02 cells assessed as early apoptotic cells at 10 nM after 72 hrs by annexin V-FITC/propidium iodide staining-based flow cytometric method (reference value: 2%); type: cell-based; conditions: l02, 72 h, 0.01 µM
L02 [13] = assay: Induction of apoptosis in human L02 cells assessed as late apoptotic cells at 10 nM after 72 hrs by annexin V-FITC/propidium iodide staining-based flow cytometric method (reference value: 1.6%); type: cell-based; conditions: l02, 72 h, 0.01 µM
[14] = Induction of apoptosis in human L02 cells assessed as viable cells at 10 nM after 72 hrs by annexin V-FITC/propidium iodide staining-based flow cytometric method (reference value: 96.3%); type: cell-based; conditions: read-out: Activity
L02 [15] = assay: Induction of apoptosis in human L02 cells assessed as early apoptotic cells at 100 nM after 72 hrs by annexin V-FITC/propidium iodide staining-based flow cytometric method (reference value: 2%); type: cell-based; conditions: l02, 72 h, 0.1 µM
L02 [16] = assay: Induction of apoptosis in human L02 cells assessed as late apoptotic cells at 100 nM after 72 hrs by annexin V-FITC/propidium iodide staining-based flow cytometric method (reference value: 1.6%); type: cell-based; conditions: l02, 72 h, 0.1 µM
L02 [17] = assay: Induction of apoptosis in human L02 cells assessed as necrotic cells at 100 nM after 72 hrs by annexin V-FITC/propidium iodide staining-based flow cytometric method (reference value: 0%); type: cell-based; conditions: l02, 72 h, 0.1 µM
L02 [18] = assay: Induction of apoptosis in human L02 cells assessed as early apoptotic cells at 200 nM after 72 hrs by annexin V-FITC/propidium iodide staining-based flow cytometric method (reference value: 2%); type: cell-based; conditions: l02, 72 h, 0.2 µM
L02 [19] = assay: Induction of apoptosis in human L02 cells assessed as necrotic cells at 200 nM after 72 hrs by annexin V-FITC/propidium iodide staining-based flow cytometric method (reference value: 0%); type: cell-based; conditions: l02, 72 h, 0.2 µM
[20] = Induction of apoptosis in human L02 cells assessed as viable cells at 200 nM after 72 hrs by annexin V-FITC/propidium iodide staining-based flow cytometric method (reference value: 96.3%); type: cell-based; conditions: read-out: Activity
A549 [21] = assay: Cell cycle arrest in human A549 cells assessed as accumulation at G0/G1 phase at 5 nM after 72 hrs by propidium iodide staining-based flow cytometric method (reference value: 61.29%); type: functional
A549 [22] = assay: Cell cycle arrest in human A549 cells assessed as accumulation at S phase at 5 nM after 72 hrs by propidium iodide staining-based flow cytometric method (reference value: 24.48%); type: functional
A549 [23] = assay: Cell cycle arrest in human A549 cells assessed as accumulation at G0/G1 phase at 10 nM after 72 hrs by propidium iodide staining-based flow cytometric method (reference value: 61.29%); type: functional
A549 [24] = assay: Cell cycle arrest in human A549 cells assessed as accumulation at S phase at 10 nM after 72 hrs by propidium iodide staining-based flow cytometric method (reference value: 24.48%); type: functional
A549 [25] = assay: Cell cycle arrest in human A549 cells assessed as accumulation at G2/M phase at 10 nM after 72 hrs by propidium iodide staining-based flow cytometric method (reference value: 14.23%); type: functional
A549 [26] = assay: Cell cycle arrest in human A549 cells assessed as accumulation at G0/G1 phase at 100 nM after 72 hrs by propidium iodide staining-based flow cytometric method (reference value: 61.29%); type: functional
A549 [27] = assay: Cell cycle arrest in human A549 cells assessed as accumulation at S phase at 100 nM after 72 hrs by propidium iodide staining-based flow cytometric method (reference value: 24.48%); type: functional
A549 [28] = assay: Cell cycle arrest in human A549 cells assessed as accumulation at G2/M phase at 100 nM after 72 hrs by propidium iodide staining-based flow cytometric method (reference value: 14.23%); type: functional
L02 [29] = assay: Cell cycle arrest in human L02 cells assessed as accumulation at G0/G1 phase at 5 nM after 72 hrs by propidium iodide staining-based flow cytometric method (reference value: 57.34%); type: ADME; conditions: l02, 72 h, 0.005 µM
L02 [30] = assay: Cell cycle arrest in human L02 cells assessed as accumulation at G2/M phase at 5 nM after 72 hrs by propidium iodide staining-based flow cytometric method (reference value: 16.88%); type: ADME; conditions: l02, 72 h, 0.005 µM
L02 [31] = assay: Cell cycle arrest in human L02 cells assessed as accumulation at S phase at 10 nM after 72 hrs by propidium iodide staining-based flow cytometric method (reference value: 25.78%); type: ADME; conditions: l02, 72 h, 0.01 µM
L02 [32] = assay: Cell cycle arrest in human L02 cells assessed as accumulation at G0/G1 phase at 100 nM after 72 hrs by propidium iodide staining-based flow cytometric method (reference value: 57.34%); type: ADME; conditions: l02, 72 h, 0.1 µM
L02 [33] = assay: Cell cycle arrest in human L02 cells assessed as accumulation at S phase at 100 nM after 72 hrs by propidium iodide staining-based flow cytometric method (reference value: 25.78%); type: ADME; conditions: l02, 72 h, 0.1 µM
A549 [34] = assay: Induction of apoptosis in human A549 cells after 72 hrs by annexin V-FITC/propidium iodide staining-based flow cytometric method; type: functional, cell-based

With `COc1cc([C@@H]2c3cc4c(cc3[C@H](OC(=O)CN(C)C(=O)OC(C)(C)C)[C@H]3COC(=O)[C@H]23)OCO4)cc(OC)c1OC` the IC50 (A549 [1]) was 9.5 nM, the selectivity ratio [2] was 16.9 and the Activity (L02 [3]) was “Non-Toxic”. It also gave an Activity (A549 [4]) of 4.1%, an Activity (A549 [5]) of 3% and an Activity (A549 [6]) of 0%. For the same compound, the viability at 0.1 µM (A549 [7]) was 12.4%, the Activity (A549 [8]) was 92.8% and the Activity (A549 [9]) was 2.1%. For the same compound, the Activity (A549 [10]) was 0%, the viability at 0.2 µM (A549 [11]) was 5.1% and the Activity (L02 [12]) was 4.3%. The Activity (L02 [13]) was 1.6%, the viability at 72 h, 0.01 µM [14] was 94.1% and the Activity (L02 [15]) was 10.6%. It also gave an Activity (L02 [16]) of 2.1%, an Activity (L02 [17]) of 0% and an Activity (L02 [18]) of 65%. For the same compound, the Activity (L02 [19]) was 0.1%, the viability at 72 h, 0.2 µM [20] was 31.8% and the Activity (A549 [21]) was 60.2%. It also gave an Activity (A549 [22]) of 26.07%, an Activity (A549 [23]) of 59.2% and an Activity (A549 [24]) of 27.26%. It also gave an Activity (A549 [25]) of 13.54%, an Activity (A549 [26]) of 36.73% and an Activity (A549 [27]) of 47.13%. For the same compound, the Activity (A549 [28]) was 17.14%, the Activity (L02 [29]) was 62.19% and the Activity (L02 [30]) was 13.77%. For the same compound, the Activity (L02 [31]) was 24.59%, the Activity (L02 [32]) was 67.29% and the Activity (L02 [33]) was 18.93%. For the same compound, the Activity (A549 [34]) was “Dose-dependent effect”.
